Several values for one entry are separate records, joined by “and”; a condition that tells them apart may be missing. Equal values may be shown once. Read-outs that look alike come from different tables or passages of the source.
How the values were obtained:
Assay type in all cases: cell-based
MAGI cells = test: cytotoxicity in the anti-HIV assay (CC50); conditions: single determinations
DL1 cells = test: cytotoxicity in Drosophila DL1 cells; conditions: for IC50: Drosophila melanogaster
Experimental: (§1) We screened the DDPs on the Drosophila assay system for cytotoxicity, inhibitory activity of innate immune signalling and insecticidal activity. The cytotoxicity of the DDPs was evaluated using two cell lines, embryonic macrophage-derived DL1 cells[58]–[60] and larval blood cell-derived l(2)mbn cells, and their IC50 values are listed in Supplementary Table 23.

[1] = cytotoxicity in Drosophila DL1 cells; conditions: Drosophila, DL1 cells (embryonic macrophage-derived), DL1 cells
Experimental: as §1

[2] = test system: human immunodeficiency virus-1 (HIV-1); test: anti-HIV MAGI assay; conditions: anti-HIV
Text: We examined the inhibitory activities of DDPs against various species of bacteria (both gram-negative and gram-positive bacteria), fungi and viruses. […] In contrast, preliminary screening of the DDPs for anti-viral agents with hepatitis B virus (HBV), measles virus (MV), Epstein-Barr virus (EBV), herpes simplex virus (HSV) and human immunodeficiency virus-1 (HIV-1) indicated their selective inhibition of HIV.

l(2)mbn cells = test: cytotoxicity in Drosophila l(2)mbn cells; conditions: for Luminescence Raw1: replicate 1; for Luminescence Raw2: replicate 2; for IC50: Drosophila melanogaster, cytotoxicity
Experimental: as §1

[3] = cytotoxicity in Drosophila l(2)mbn cells; conditions: Drosophila, l(2)mbn cells (larval blood cell-derived)
Experimental: as §1

[4] = DL1 cells, 0.04 µM, replicate 1
[5] = DL1 cells, 0.04 µM, replicate 2
[6] = DL1 cells, cytotoxicity, average of two replicates, read-out: IC50 Average
[7] = DL1 cells, cytotoxicity, replicate 1, read-out: IC50 (1)
[8] = DL1 cells, cytotoxicity, replicate 2, read-out: IC50 (2)
[9] = replicate 1, relative to DMSO 1%, read-out: % viability, viability 1
[10] = replicate 2, relative to DMSO 1%, read-out: % viability, viability 2
[11] = Human immunodeficiency virus 1, MAGI, average of numeric determinations, read-out: Avg. EC50
[12] = average of two replicates, read-out: IC50 Average
[13] = replicate 1, read-out: IC50 (1)
[14] = replicate 2, read-out: IC50 (2)

Q: Which results are given for `C=C1CC[C@H]2[C@]3(C)C[C@@H](C=C(C)C)O[C@H]3CC[C@]2(C)[C@@H]1Cc1c(O)c(C)c(C)oc1=O` [Compound 5, subglutinol A]?
A: Cytotoxicity (MAGI cells): >10 µM; Luminescence Raw1 (DL1 cells; [4]): 261750; Luminescence Raw2 (DL1 cells; [5]): 334946; Luminescence Raw1 (DL1 cells; DL1 cells, 0.2 µM, replicate 1): 155744; Luminescence Raw2 (DL1 cells; DL1 cells, 0.2 µM, replicate 2): 204060; Luminescence Raw1 (DL1 cells; DL1 cells, 1 µM, replicate 1): 149254; Luminescence Raw2 (DL1 cells; DL1 cells, 1 µM, replicate 2): 158268; Luminescence Raw1 (DL1 cells; DL1 cells, 4 µM, replicate 1): 162234; Luminescence Raw2 (DL1 cells; DL1 cells, 4 µM, replicate 2): 166201; Luminescence Raw1 (DL1 cells; DL1 cells, 10 µM, replicate 1): 152139; Luminescence Raw2 (DL1 cells; DL1 cells, 10 µM, replicate 2): 173051; Luminescence Raw1 (DL1 cells; DL1 cells, 20 µM, replicate 1): 137356; Luminescence Raw2 (DL1 cells; DL1 cells, 20 µM, replicate 2): 139880; IC50 (DL1 cells; [6]): < 40 nM; IC50 (DL1 cells; [7]): < 40 nM; IC50 (DL1 cells; [8]): < 40 nM; IC50 (DL1 cells; DL-1 cell line, cell growth, read-out: IC50): < 40 nM; viability at 0.04 µM [1, 9]: 6.35%; viability at 0.04 µM [1, 10]: 8.13%; viability at 0.2 µM [1, 9]: 3.78%; viability at 0.2 µM [1, 10]: 4.95%; viability at 1 µM [1, 9]: 3.62%; viability at 1 µM [1, 10]: 3.84%; viability at 4 µM [1, 9]: 3.94%; viability at 4 µM [1, 10]: 4.03%; viability at 10 µM [1, 9]: 3.69%; viability at 10 µM [1, 10]: 4.2%; viability at 20 µM [1, 9]: 3.33%; viability at 20 µM [1, 10]: 3.4%; EC50 ([2]; Human immunodeficiency virus 1, MAGI, MAGI assay, read-out: EC50): < 200 nM; EC50 [2, 11]: 38.9 nM; EC50 ([2]; Human immunodeficiency virus 1, MAGI, single determinations, read-out: Efficacy (EC50)): 36.3 nM; EC50 ([2]; single determinations, read-out: Efficacy (EC50)): 29.8 nM and 37.9 nM and 51.4 nM; Luminescence Raw1 (l(2)mbn cells; 0.04 µM): 3571044; Luminescence Raw2 (l(2)mbn cells; 0.04 µM): 3503586; Luminescence Raw1 (l(2)mbn cells; 0.2 µM): 510842; Luminescence Raw2 (l(2)mbn cells; 0.2 µM): 436923; Luminescence Raw1 (l(2)mbn cells; 1 µM): 230676; Luminescence Raw2 (l(2)mbn cells; 1 µM): 218056; Luminescence Raw1 (l(2)mbn cells; 4 µM): 213369; Luminescence Raw2 (l(2)mbn cells; 4 µM): 193177; Luminescence Raw1 (l(2)mbn cells; 10 µM): 210485; Luminescence Raw2 (l(2)mbn cells; 10 µM): 206518; Luminescence Raw1 (l(2)mbn cells; 20 µM): 196783; Luminescence Raw2 (l(2)mbn cells; 20 µM): 198586; IC50 (l(2)mbn cells; [12]): 190 nM; IC50 (l(2)mbn cells; average±SEM, read-out: IC50): 190 ± 10 nM; IC50 (l(2)mbn cells; [13]): 194 nM; IC50 (l(2)mbn cells; [14]): 180 nM; viability at 0.04 µM [3, 9]: 139%; viability at 0.04 µM [3, 10]: 137%; viability at 0.2 µM [3, 9]: 19.9%; viability at 0.2 µM [3, 10]: 17%; viability at 1 µM [3, 9]: 8.99%; viability at 1 µM [3, 10]: 8.5%; viability at 4 µM [3, 9]: 8.31%; viability at 4 µM [3, 10]: 7.53%; viability at 10 µM [3, 9]: 8.2%; viability at 10 µM [3, 10]: 8.05%; viability at 20 µM [3, 9]: 7.67%; viability at 20 µM [3, 10]: 7.74%

Q: Which Cytotoxicity (MAGI cells) does the source give for `C=C1CC[C@H]2[C@]3(C)C[C@H](C=C(C)C)O[C@H]3CC[C@]2(C)[C@@H]1Cc1c(O)c(C)c(C)oc1=O` [Compound 6, subglutinol B] here?
A: >10 µM

Q: What about the “Luminescence Raw1” value (DL1 cells; [4]) of the same molecule?
A: 2426216

Q: And the “Luminescence Raw2” value (DL1 cells; [5])?
A: 2551013

Q: And the “Luminescence Raw1” value (DL1 cells; DL1 cells, 0.2 µM, replicate 1)?
A: 492518

Q: And the “Luminescence Raw2” value (DL1 cells; DL1 cells, 0.2 µM, replicate 2)?
A: 1138346

Q: What about the “Luminescence Raw1” value (DL1 cells; DL1 cells, 1 µM, replicate 1) of the same molecule?
A: 157908

Q: And the “Luminescence Raw2” value (DL1 cells; DL1 cells, 1 µM, replicate 2)?
A: 170527

Q: And the “Luminescence Raw1” value (DL1 cells; DL1 cells, 4 µM, replicate 1)?
A: 161874

Q: What about the “Luminescence Raw2” value (DL1 cells; DL1 cells, 4 µM, replicate 2) of the same molecule?
A: 145288

Q: And the “Luminescence Raw1” value (DL1 cells; DL1 cells, 10 µM, replicate 1)?
A: 147812

Q: And the “Luminescence Raw2” value (DL1 cells; DL1 cells, 10 µM, replicate 2)?
A: 152139

Q: What about the “Luminescence Raw1” value (DL1 cells; DL1 cells, 20 µM, replicate 1) of the same molecule?
A: 149254

Q: What about the “Luminescence Raw2” value (DL1 cells; DL1 cells, 20 µM, replicate 2) of the same molecule?
A: 136274

Q: What about the IC50 (DL1 cells; [6]) of the same molecule?
A: 234 nM

Q: What about the IC50 (DL1 cells; DL1 cells, cytotoxicity, average±SEM, read-out: IC50) of the same molecule?
A: 230 ± 70 nM

Q: What about the IC50 (DL1 cells; [7]) of the same molecule?
A: 166 nM

Q: What about the IC50 (DL1 cells; [8]) of the same molecule?
A: 303 nM

Q: What about the viability at 0.04 µM [1, 9] of the same molecule?
A: 118%

Q: And the viability at 0.04 µM [1, 10]?
A: 124%

Q: And the viability at 0.2 µM [1, 9]?
A: 23.9%

Q: What about the viability at 0.2 µM [1, 10] of the same molecule?
A: 55.3%

Q: What about the viability at 1 µM [1, 9] of the same molecule?
A: 7.67%

Q: What about the viability at 1 µM [1, 10] of the same molecule?
A: 8.28%

Q: What about the viability at 4 µM [1, 9] of the same molecule?
A: 7.86%

Q: What about the viability at 4 µM [1, 10] of the same molecule?
A: 7.05%

Q: What about the viability at 10 µM [1, 9] of the same molecule?
A: 7.18%

Q: And the viability at 10 µM [1, 10]?
A: 7.39%

Q: What about the viability at 20 µM [1, 9] of the same molecule?
A: 7.25%

Q: And the viability at 20 µM [1, 10]?
A: 6.62%

Q: What about the EC50 [2, 11] of the same molecule?
A: 757 nM

Q: What about the “Luminescence Raw1” value (l(2)mbn cells; 0.04 µM) of the same molecule?
A: 3229071

Q: What about the “Luminescence Raw2” value (l(2)mbn cells; 0.04 µM) of the same molecule?
A: 3538217

Q: And the “Luminescence Raw1” value (l(2)mbn cells; 0.2 µM)?
A: 3288590

Q: What about the “Luminescence Raw2” value (l(2)mbn cells; 0.2 µM) of the same molecule?
A: 2991720

Q: What about the “Luminescence Raw1” value (l(2)mbn cells; 1 µM) of the same molecule?
A: 424303

Q: What about the “Luminescence Raw2” value (l(2)mbn cells; 1 µM) of the same molecule?
A: 530313

Q: And the “Luminescence Raw1” value (l(2)mbn cells; 4 µM)?
A: 220220

Q: What about the “Luminescence Raw2” value (l(2)mbn cells; 4 µM) of the same molecule?
A: 206879

Q: What about the “Luminescence Raw1” value (l(2)mbn cells; 10 µM) of the same molecule?
A: 225268

Q: What about the “Luminescence Raw2” value (l(2)mbn cells; 10 µM) of the same molecule?
A: 189211

Q: What about the “Luminescence Raw1” value (l(2)mbn cells; 20 µM) of the same molecule?
A: 213009

Q: And the “Luminescence Raw2” value (l(2)mbn cells; 20 µM)?
A: 187048

Q: And the IC50 (l(2)mbn cells; [12])?
A: 850 nM

Q: And the IC50 (l(2)mbn cells; average±SEM, read-out: IC50)?
A: 850 ± 10 nM

Q: What about the IC50 (l(2)mbn cells; [13]) of the same molecule?
A: 860 nM

Q: What about the IC50 (l(2)mbn cells; [14]) of the same molecule?
A: 838 nM

Q: And the viability at 0.04 µM [3, 9]?
A: 126%

Q: What about the viability at 0.04 µM [3, 10] of the same molecule?
A: 138%

Q: And the viability at 0.2 µM [3, 9]?
A: 128%

Q: What about the viability at 0.2 µM [3, 10] of the same molecule?
A: 117%

Q: What about the viability at 1 µM [3, 9] of the same molecule?
A: 16.5%

Q: What about the viability at 1 µM [3, 10] of the same molecule?
A: 20.7%

Q: And the viability at 4 µM [3, 9]?
A: 8.58%

Q: And the viability at 4 µM [3, 10]?
A: 8.06%

Q: And the viability at 10 µM [3, 9]?
A: 8.78%

Q: What about the viability at 10 µM [3, 10] of the same molecule?
A: 7.37%

Q: What about the viability at 20 µM [3, 9] of the same molecule?
A: 8.3%

Q: And the viability at 20 µM [3, 10]?
A: 7.29%

Source: publication PMC7156458, “Synthetic biology based construction of biological activity-related library of fungal decalin-containing diterpenoid pyrones” (Nature Communications, 2020)
